Where two headings read alike, the source gives them in different places.
Columns and labels:
[1] = system: carboxylesterases (hiCE, hCE1) in human liver microsomal extracts; assay type: biochemical; conditions: 10μM benzil
[2] = system: carboxylesterases (CE) in human liver microsomal extracts; assay: CE activity; assay type: biochemical; conditions: 10μM benzil
[3] = liver microsomal extracts, typical

O=C(C(=O)c1ccccc1)c1ccccc1 [benzil]
CPT-11 hydrolysis + benzil ([1]; liver microsomal extract HG03): 6.62 ± 0.16 pmol/mg/h | Loss in CPT-11 hydrolysis + benzil ([1]; liver microsomal extract HG03): 37.6 pmol/mg/h | Loss in CPT-11 hydrolysis + benzil [%] ([1]; liver microsomal extract HG03): 85% | CPT-11 hydrolysis + benzil ([1]; liver microsomal extract HG74): 6.25 ± 0.13 pmol/mg/h | Loss in CPT-11 hydrolysis + benzil ([1]; liver microsomal extract HG74): 33.6 pmol/mg/h | Loss in CPT-11 hydrolysis + benzil [%] ([1]; liver microsomal extract HG74): 84.3% | CPT-11 hydrolysis + benzil ([1]; liver microsomal extract HG93): 4.58 ± 0.10 pmol/mg/h | Loss in CPT-11 hydrolysis + benzil ([1]; liver microsomal extract HG93): 26.0 pmol/mg/h | Loss in CPT-11 hydrolysis + benzil [%] ([1]; liver microsomal extract HG93): 85.0% | CPT-11 hydrolysis + benzil ([1]; liver microsomal extract HG95): 5.39 ± 0.09 pmol/mg/h | Loss in CPT-11 hydrolysis + benzil ([1]; liver microsomal extract HG95): 19.1 pmol/mg/h | Loss in CPT-11 hydrolysis + benzil [%] ([1]; liver microsomal extract HG95): 78.0% | CPT-11 hydrolysis + benzil ([1]; liver microsomal extract HG103): 4.22 ± 0.10 pmol/mg/h | Loss in CPT-11 hydrolysis + benzil ([1]; liver microsomal extract HG103): 28.3 pmol/mg/h | Loss in CPT-11 hydrolysis + benzil [%] ([1]; liver microsomal extract HG103): 87.0% | CPT-11 hydrolysis + benzil ([1]; liver microsomal extract HH13): 3.94 ± 0.12 pmol/mg/h | Loss in CPT-11 hydrolysis + benzil ([1]; liver microsomal extract HH13): 30.0 pmol/mg/h | Loss in CPT-11 hydrolysis + benzil [%] ([1]; liver microsomal extract HH13): 88.4% | CPT-11 hydrolysis + benzil ([1]; liver microsomal extract HH61): 2.80 ± 0.007 pmol/mg/h | Loss in CPT-11 hydrolysis + benzil ([1]; liver microsomal extract HH61): 19.4 pmol/mg/h | Loss in CPT-11 hydrolysis + benzil [%] ([1]; liver microsomal extract HH61): 87.4% | CPT-11 hydrolysis + benzil ([1]; liver microsomal extract HH74): 2.49 ± 0.04 pmol/mg/h | Loss in CPT-11 hydrolysis + benzil ([1]; liver microsomal extract HH74): 12.9 pmol/mg/h | Loss in CPT-11 hydrolysis + benzil [%] ([1]; liver microsomal extract HH74): 83.8% | CPT-11 hydrolysis + benzil ([1]; liver microsomal extract HK37): 4.31 ± 0.02 pmol/mg/h | Loss in CPT-11 hydrolysis + benzil ([1]; liver microsomal extract HK37): 31.0 pmol/mg/h | Loss in CPT-11 hydrolysis + benzil [%] ([1]; liver microsomal extract HK37): 87.8% | CPT-11 hydrolysis + benzil ([1]; liver microsomal extract SD003): 8.00 ± 0.01 pmol/mg/h | Loss in CPT-11 hydrolysis + benzil ([1]; liver microsomal extract SD003): 46.6 pmol/mg/h | Loss in CPT-11 hydrolysis + benzil [%] ([1]; liver microsomal extract SD003): 85.4% | CPT-11 hydrolysis + benzil ([1]; liver microsomal extract SD004): 4.38 ± 0.07 pmol/mg/h | Loss in CPT-11 hydrolysis + benzil ([1]; liver microsomal extract SD004): 29.5 pmol/mg/h | Loss in CPT-11 hydrolysis + benzil [%] ([1]; liver microsomal extract SD004): 87.1% | CPT-11 hydrolysis + benzil ([1]; liver microsomal extract SD104): 3.89 ± 0.32 pmol/mg/h | Loss in CPT-11 hydrolysis + benzil ([1]; liver microsomal extract SD104): 15.6 pmol/mg/h | Loss in CPT-11 hydrolysis + benzil [%] ([1]; liver microsomal extract SD104): 80.0% | CPT-11 hydrolysis + benzil ([1]; liver microsomal extract SD120): 6.00 ± 0.20 pmol/mg/h | Loss in CPT-11 hydrolysis + benzil ([1]; liver microsomal extract SD120): 37.8 pmol/mg/h | Loss in CPT-11 hydrolysis + benzil [%] ([1]; liver microsomal extract SD120): 86.4% | CPT-11 hydrolysis + benzil ([1]; liver microsomal extract SD123): 4.00 ± 0.09 pmol/mg/h | CPT-11 hydrolysis + benzil ([1]; liver microsomal extract SD124): 5.04 ± 0.09 pmol/mg/h | Loss in CPT-11 hydrolysis + benzil ([1]; liver microsomal extract SD124): 22.1 pmol/mg/h | Loss in CPT-11 hydrolysis + benzil [%] ([1]; liver microsomal extract SD124): 81.4% | CPT-11 hydrolysis + benzil ([1]; liver microsomal extract SD128): 4.03 ± 0.01 pmol/mg/h | Loss in CPT-11 hydrolysis + benzil ([1]; liver microsomal extract SD128): 25.5 pmol/mg/h | Loss in CPT-11 hydrolysis + benzil [%] ([1]; liver microsomal extract SD128): 86.4% | CPT-11 hydrolysis + benzil ([1]; liver microsomal extract SD132): 4.30 ± 0.01 pmol/mg/h | Loss in CPT-11 hydrolysis + benzil ([1]; liver microsomal extract SD132): 22.3 pmol/mg/h | Loss in CPT-11 hydrolysis + benzil [%] ([1]; liver microsomal extract SD132): 83.9% | CPT-11 hydrolysis + benzil ([1]; liver microsomal extract SD134): 2.57 ± 0.03 pmol/mg/h | Loss in CPT-11 hydrolysis + benzil ([1]; liver microsomal extract SD134): 14.9 pmol/mg/h | Loss in CPT-11 hydrolysis + benzil [%] ([1]; liver microsomal extract SD134): 85.3% | CPT-11 hydrolysis + benzil ([1]; liver microsomal extract SD136): 7.76 ± 0.18 pmol/mg/h | Loss in CPT-11 hydrolysis + benzil ([1]; liver microsomal extract SD136): 47.6 pmol/mg/h | Loss in CPT-11 hydrolysis + benzil [%] ([1]; liver microsomal extract SD136): 86.0% | reduction of yields of SN-38 produced [1, 3]: 80–90% | CE activity + benzil ([2]; liver microsomal extract HG03): 640 ± 97 nmol/mg/min | Loss in CE activity + benzil ([2]; liver microsomal extract HG03): 5935 nmol/mg/min | Loss in CE activity + benzil [%] ([2]; liver microsomal extract HG03): 90.3% | CE activity + benzil ([2]; liver microsomal extract HG74): 854 ± 97 nmol/mg/min | Loss in CE activity + benzil ([2]; liver microsomal extract HG74): 6353 nmol/mg/min | Loss in CE activity + benzil [%] ([2]; liver microsomal extract HG74): 88.2% | CE activity + benzil ([2]; liver microsomal extract HG93): 521 ± 86 nmol/mg/min | Loss in CE activity + benzil ([2]; liver microsomal extract HG93): 4207 nmol/mg/min | Loss in CE activity + benzil [%] ([2]; liver microsomal extract HG93): 89.0% | CE activity + benzil ([2]; liver microsomal extract HG95): 469 ± 45 nmol/mg/min | Loss in CE activity + benzil ([2]; liver microsomal extract HG95): 4656 nmol/mg/min | Loss in CE activity + benzil [%] ([2]; liver microsomal extract HG95): 90.9% | CE activity + benzil ([2]; liver microsomal extract HG103): 448 ± 25 nmol/mg/min | Loss in CE activity + benzil ([2]; liver microsomal extract HG103): 3258 nmol/mg/min | Loss in CE activity + benzil [%] ([2]; liver microsomal extract HG103): 87.9% | CE activity + benzil ([2]; liver microsomal extract HH13): 389 ± 41 nmol/mg/min | Loss in CE activity + benzil ([2]; liver microsomal extract HH13): 504 nmol/mg/min | Loss in CE activity + benzil [%] ([2]; liver microsomal extract HH13): 56.4% | CE activity + benzil ([2]; liver microsomal extract HH61): 406 ± 21 nmol/mg/min | Loss in CE activity + benzil ([2]; liver microsomal extract HH61): 5472 nmol/mg/min | Loss in CE activity + benzil [%] ([2]; liver microsomal extract HH61): 93.1% | CE activity + benzil ([2]; liver microsomal extract HH74): 377 ± 7.8 nmol/mg/min | Loss in CE activity + benzil ([2]; liver microsomal extract HH74): 3329 nmol/mg/min | Loss in CE activity + benzil [%] ([2]; liver microsomal extract HH74): 89.8% | CE activity + benzil ([2]; liver microsomal extract HK37): 476 ± 58 nmol/mg/min | Loss in CE activity + benzil ([2]; liver microsomal extract HK37): 5856 nmol/mg/min | Loss in CE activity + benzil [%] ([2]; liver microsomal extract HK37): 92.5% | CE activity + benzil ([2]; liver microsomal extract SD003): 439 ± 42 nmol/mg/min | Loss in CE activity + benzil ([2]; liver microsomal extract SD003): 4804 nmol/mg/min | Loss in CE activity + benzil [%] ([2]; liver microsomal extract SD003): 91.6% | CE activity + benzil ([2]; liver microsomal extract SD004): 552 ± 35 nmol/mg/min | Loss in CE activity + benzil ([2]; liver microsomal extract SD004): 5070 nmol/mg/min | Loss in CE activity + benzil [%] ([2]; liver microsomal extract SD004): 90.2% | CE activity + benzil ([2]; liver microsomal extract SD104): 507 ± 48 nmol/mg/min | Loss in CE activity + benzil ([2]; liver microsomal extract SD104): 4881 nmol/mg/min | Loss in CE activity + benzil [%] ([2]; liver microsomal extract SD104): 90.6% | CE activity + benzil ([2]; liver microsomal extract SD120): 367 ± 27 nmol/mg/min | Loss in CE activity + benzil ([2]; liver microsomal extract SD120): 4128 nmol/mg/min | Loss in CE activity + benzil [%] ([2]; liver microsomal extract SD120): 91.8% | CE activity + benzil ([2]; liver microsomal extract SD123): 544 ± 29 nmol/mg/min | Loss in CE activity + benzil ([2]; liver microsomal extract SD123): 5401 nmol/mg/min | Loss in CE activity + benzil [%] ([2]; liver microsomal extract SD123): 90.9% | CE activity + benzil ([2]; liver microsomal extract SD124): 268 ± 11 nmol/mg/min | Loss in CE activity + benzil ([2]; liver microsomal extract SD124): 3140 nmol/mg/min | Loss in CE activity + benzil [%] ([2]; liver microsomal extract SD124): 92.1% | CE activity + benzil ([2]; liver microsomal extract SD128): 713 ± 2.7 nmol/mg/min | Loss in CE activity + benzil ([2]; liver microsomal extract SD128): 5600 nmol/mg/min | Loss in CE activity + benzil [%] ([2]; liver microsomal extract SD128): 88.7% | CE activity + benzil ([2]; liver microsomal extract SD132): 935 ± 79 nmol/mg/min | Loss in CE activity + benzil ([2]; liver microsomal extract SD132): 7259 nmol/mg/min | Loss in CE activity + benzil [%] ([2]; liver microsomal extract SD132): 88.6% | CE activity + benzil ([2]; liver microsomal extract SD134): 322 ± 43 nmol/mg/min | Loss in CE activity + benzil ([2]; liver microsomal extract SD134): 220 nmol/mg/min | Loss in CE activity + benzil [%] ([2]; liver microsomal extract SD134): 40.6% | CE activity + benzil ([2]; liver microsomal extract SD136): 314 ± 35 nmol/mg/min | Loss in CE activity + benzil ([2]; liver microsomal extract SD136): 2882 nmol/mg/min | Loss in CE activity + benzil [%] ([2]; liver microsomal extract SD136): 90.1% | reduction of CE activity [2, 3]: 80–90%

Source: article PMC2991631 (Biochemical pharmacology, 2010)
